Data from ChEMBL document CHEMBL3507680, “University of Dundee, Gates Library screen for HepG2 cell viability”.

test: Human HepG2 cell viability assay in 384 well format; format: toxicity, cell-based; design: dose 125 nL, time 70.5 hour; concentration not given beside the values; settings: HepG2 cells, read-out: Inhibition

SMILES | cytotoxicity at 70.5 h
Cc1ccc2c(c1)c(CNC(C)Cn1nc(C)cc1C)nn2C (centres undefined) | 2.8%
Cc1ccc(CN2C[C@@H](C(=O)O)[C@H](c3ccccn3)C2)o1 | 17.9%
Cc1cn2cc(-c3nc4c([nH]3)CCCNC4=O)nc2s1 | -10.3%
Cn1cnnc1CN1CCC2(CCC(=O)N(Cc3ccccn3)C2)CC1 | -6.09%
CC(C)CN1CCN(S(=O)(=O)c2cn(C)cn2)[C@H]2CS(=O)(=O)C[C@H]21 | -9.12%
CCOCCOc1ccccc1C(=O)N1C[C@H](C2CC2)[C@@H](N)C1 | 27.2%
CC(C)Cc1cc(C(=O)NCCc2nnc(N)s2)n(C)n1 | -23.5%
CCc1c(C)nn(CCNC(=O)Cc2csc(C)n2)c1C | -6.58%
Cc1cc(-c2cc(-c3cc(CC(=O)O)cs3)nc(N)c2C#N)oc1C | -12.1%
CCn1nc(NC(=O)Cn2ccc(C(C)=O)n2)c2ccccc21 | 26.9%
CNC1CCN(C2CCN(c3ccc(-c4ccco4)cc3)CC2)CC1 | 8.23%
CC(C)=CCN1CCN(C(=O)c2cc(C(C)C)no2)[C@H]2CS(=O)(=O)C[C@H]21 | -8.12%
CCn1cc(-c2cc(-c3ccn(C)c3)nc(N)c2C#N)cc1C#N | 5.48%
CN1CCN(C(=O)c2cccc(S(=O)(=O)NCC3(C)COC3)c2)CC1 | -9.16%
COC(=O)c1ccc2ccn(CC3CCCCO3)c(=O)c2c1 (centres undefined) | -4.76%
CC(=O)N1C[C@@H]2CC[C@H](C1)N(C(=O)CCc1n[nH]c3c1CCCC3)C2 | 1.78%
Cc1ccc(CN2CCC(n3cc(CN4CCC(O)CC4)nn3)CC2)s1 | -6.27%
CCc1ncc2c(n1)CN(C(=O)CCCc1ccc(OC)cc1)C2 | -6.31%
Cc1ncc(C(=O)N2CCCC(C(=O)CCc3ccccc3)C2)s1 (centres undefined) | -13.8%
CN1CCN2C[C@@H](NC(=O)c3nc4ccccc4[nH]3)C[C@H]2C1 | -4.68%
CCNc1ccnc(-c2ccnc3c2ccn3C)n1 | -2.33%
CCN(CCc1nc2cc(C)ccc2[nH]1)C(=O)[C@@H](N)CCSC | -4.38%

SMILES | cytotoxicity at 70.5 h
COC1CCN(C(=O)Cn2cccc(C(F)(F)F)c2=O)C1 (centres undefined) | -8.78%
C[C@@H]1CN(Cc2nc(C(N)=O)no2)CC[C@@]1(O)C1CCOCC1 | -8.91%
Cc1cc2c(N3CCC(N(C)Cc4nccs4)CC3)ncnc2s1 | 9.35%
Cc1csc2c(N3CCC(Cn4cc(C(C)(C)O)nn4)CC3)ncnc12 | -9.53%
CC(C)N1CCCn2nc(C(=O)NCc3ccccc3F)cc2C1 | -5.27%
Cn1cc(CN2CCCC23CCN(c2nc4ccccc4s2)CC3)cn1 | -4.41%
CNS(=O)(=O)CCNC(=O)c1coc(COc2ccc(F)cc2)n1 | -4.33%
Cc1nc(CN(C)C(=O)c2ccc(Cn3cnnn3)cc2)cs1 | 21.4%
COc1cccc(C2CCN(c3ccc4cc[nH]c4n3)C2)c1OC (centres undefined) | 1.26%
Cc1nccc(N[C@H]2CN(C(=O)CCN3CCCC3=O)C[C@@H]2C(C)C)n1 | -19.6%
O=C1CCCCCN1Cc1cccc(OC(F)F)c1 | -5.05%
O=C(O)c1cnc(N2CC[C@H](N3CCOCC3)[C@H](CCCO)C2)c(Cl)c1 | -7.02%
O=C(NCCc1cnccn1)C1(N2CCCCC2)Cc2ccccc2C1 | -8.18%
Cc1cc(C)c2c(N3CCN(C(=O)N(C)C)CC3)ncnc2n1 | -3.44%
CN(Cc1n[nH]c2c1CCC2)C(=O)c1cccc(CCC(C)(C)O)c1 | 1.92%
Cc1cccc2[nH]c(C3CCCN3Cc3ccc(CO)o3)nc12 (centres undefined) | -9.7%
CCc1[nH]c2c(CNC(=O)C3CNC(=O)C3)cc(C)cc2c1C (centres undefined) | -11.3%
Cc1nc2c(c(NCC(c3cccnc3)N3CCOCC3)n1)CCNC2 (centres undefined) | -15.5%
OCC1(O)CCCN(Cc2noc(-c3ccccc3)n2)CC1 (centres undefined) | 26.3%
Cc1nonc1CN(C)Cc1nc(-c2ccccc2Cl)oc1C | -7.91%
CCN1CCC(Cn2ccc3ccc(C(=O)OC)cc3c2=O)C1 (centres undefined) | -6.6%
COCCCN1C(=O)CC[C@H]2CN(c3cnc4ccccc4n3)CC[C@H]21 | 25%

SMILES | cytotoxicity at 70.5 h
N#Cc1ccccc1C(=O)NCCC1CN(Cc2ccco2)CCO1 (centres undefined) | 2.72%
NC(=O)c1cc2c(nc1-c1ccoc1)CCC2 | -6.2%
CC1(C)CN(CCC(=O)NCc2cccc(Cl)c2)CC[C@]1(C)O | -9.57%
Cc1cc(C(=O)N2CCCC(c3nccn3Cc3ccncc3)C2)no1 (centres undefined) | -12.9%
CCC(O)CNc1nccc(-c2ccc(C)nc2C)n1 (centres undefined) | -14.6%
CC(C(=O)O)N1CC2(CCC1=O)CCN(CCc1ccccc1)CC2 (centres undefined) | -11%
Clc1ccc(CN2CCC(C3CCN(Cc4cccnc4)CC3)C2)cc1 (centres undefined) | -2.87%
CCCSCC(=O)N1C[C@H]2CC[C@@H]1CN(c1ncccn1)C2 | -14.1%
Cc1nnsc1CN1C[C@@H]2CC[C@H](C1)N(Cc1ccccc1)C2 | 8.69%
O=C(CSCC1CC1)N1CCc2[nH]nc(COc3ccccc3)c2C1 | -6.96%
Cc1nc2sccn2c1C(=O)N1CCn2nc(C(=O)NC3CC3)cc2C1 | -11.6%
Cc1cc(C(=O)N2CCc3[nH]nc(-c4ccc5c(c4)OCO5)c3C2)no1 | 1.25%
CCc1cccc(OCCN(C)C(=O)c2ccccc2NCC(=O)O)c1 | -13.6%
CSCCCN1CCN(c2ccc(Cl)cn2)CC1 | -5.7%
CC(C)=CCC1(C(=O)O)CCCN(c2ccnc(C)n2)C1 (centres undefined) | -3.8%
COCC1(C(=O)N[C@H]2CN(c3nnc(C)s3)C[C@@H]2C2CC2)CCC1 | 7.64%
CCN(Cc1nc(COC)no1)C[C@]1(O)CCCN2CCCC[C@@H]21 | -10.1%
Cc1nc(NCCSc2nnc(C)s2)c2cccnc2n1 | -14.5%
CN(C)CCn1ccnc1C1CCN(C(=O)CCc2ccncc2)CC1 | -5.61%
CN1CCCN(C[C@@H]2CN(C(=O)CC3CCC3)C[C@@H]2CO)CC1 | -2.25%
CNC(=O)c1noc(Cn2ncc3ccccc3c2=O)n1 | 0.589%
CCCc1nc(C(=O)N2CCN(C(=O)OC)CC2)cs1 | -4.71%

SMILES | cytotoxicity at 70.5 h
COc1cc(C)ccc1C(=O)N1CCC2(CCC(=O)N(C(C)C)C2)CC1 | -4.16%
COc1ccc(C2(C(=O)N3CC(c4cccnc4)C3)CC2(C)C)cc1 (centres undefined) | -0.294%
CCN1CC2(CCN(C(=O)C3CSC(C)(C)C(=O)N3)CC2)CC1=O (centres undefined) | -6.11%
Cc1ccc2nc(C3CCCN3Cc3nnc(C)s3)[nH]c2c1 (centres undefined) | 26.6%
CCc1nnc(CN(C)C(=O)C2CC(=O)N(C3CC3)C2)o1 (centres undefined) | -6.39%
CCCn1cc(-c2ccnc(NC3CCCc4ccccc43)n2)c(C)n1 (centres undefined) | 18.9%
Cc1cc2nc(C(C)C)cc(N[C@H](C(N)=O)C(C)C)n2n1 | 32.4%
Cc1ccc2nc(-c3nc4c([nH]3)CCCNC4=O)cn2c1 | -10.1%
CC(=O)NCC1CCC2(CCN(c3ncc(C)cn3)CC2)O1 (centres undefined) | -3.04%
COc1ccc(-n2cccn2)cc1S(=O)(=O)N1C[C@H](C2CC2)[C@@H](N)C1 | -3.3%
Cc1cccc(C(C(=O)NCc2nc(-c3cccnc3)no2)N(C)C)c1 (centres undefined) | 19.5%
CCc1cnc(NCC(C)Oc2cccnc2)nc1 (centres undefined) | -5.39%
CCc1cc(N[C@H]2CCC[C@H]2O)n2nccc2n1 | 7.67%
CN1CCCN(C[C@H]2C[C@H](CO)CN(Cc3cccnc3N)C2)CC1 | 22.4%
COC(=O)NCC(=O)N1CCCCC1c1nc2cc(F)ccc2[nH]1 (centres undefined) | 1.25%
COCC[C@]1(O)CCN(C(=O)CCn2c(C)cccc2=O)C[C@H]1C | 12.1%
CN(Cc1n[nH]c2c1CCC2)C(=O)CCc1cc2n(n1)CCNC2 | -4.27%
O=C(NCCc1csc(-c2ccncc2)n1)C1CC(=O)N(C2CC2)C1 (centres undefined) | -3.67%
CC[C@H](C)[C@@H](CO)NC(C)Cc1ccccc1F (some centres undefined) | -2.57%
Cn1c(-c2cc3n(n2)CCCN(CC(=O)O)C3)nc2ccccc21 | 22.8%
CCCn1cc(S(=O)(=O)N[C@H]2CN(CCO)C[C@@H]2C2CC2)cn1 | -7.84%
Cc1ccc(OCC2CCCN(C(=O)Cn3ccccc3=O)C2)cc1 (centres undefined) | 25%

SMILES | cytotoxicity at 70.5 h
CCNc1ncc(C(=O)N2Cc3nc(C)[nH]c(=O)c3C2)cn1 | 4.44%
CC(C)(C)n1cc(C2=CCN(CCNC(N)=O)CC2)cn1 | -0.0754%
CN1CCC(N(CCc2ccccc2)C(=O)c2ccc(CO)cc2)CC1 | -11.1%
NCCn1cc(C(=O)NCc2ccccc2-n2cccn2)nn1 | -4.33%
COCc1c(C(=O)N2CCCC(C(=O)c3ccccc3)C2)noc1C (centres undefined) | -3.85%
Cn1cc2ncn(CCNc3cccnc3)c(=O)c2n1 | -3.81%
Cc1cc(C(=O)N2C[C@H]3CC[C@@H]2CN(C)C3)ccc1Cl | 29.4%
OCCO[C@H]1C[C@@H](O)C12CCN(Cc1nc(C(F)(F)F)no1)CC2 | -8.19%
CSc1ncc(C(=O)N2C[C@@H](NC(C)=O)[C@H](c3ccc(C)cc3)C2)cn1 | -5.41%
CO[C@H]1CN(C(C)C)C[C@@H]1NC(=O)c1cc(-c2ccccc2O)n[nH]1 | -1.03%
Cc1nc(CNC(=O)CC2C(=O)NCCN2CCC(C)C)n[nH]1 (centres undefined) | -8.3%
COc1ccccc1OC1(C(=O)O)CCN(c2cc(C)nc(C)c2)CC1 | -0.575%
O=C(C1CCC1)N1CC[C@]2(O)CCN(Cc3ncccn3)C[C@@H]2C1 | -9.87%
COCCC1CCCCN1Cc1nc(Cc2cccc(F)c2)no1 (centres undefined) | -2.75%
CSCC(=O)N1CCc2c(cnc(C)c2-c2noc(-c3cc[nH]n3)n2)C1 | -12.6%
Cc1ccc(C)c(OC(C)C(=O)NCCNc2cccnc2)c1 (centres undefined) | -0.127%
COCCN(C)C[C@@H]1CN(C(=O)c2ccc(O)c(Cl)c2)C[C@@H]1CO | -4.52%
CN(C)[C@H]1CN(C(=O)c2ccc3sc4c(c3c2)CCNC4=O)C[C@@H]1O | -1.45%
CCCc1nnc(N2CCN(c3ccccc3OCC)CC2)o1 | -4.12%
C/C(=C\c1ccco1)CN(C)C(C)Cc1ccccn1 (centres undefined) | 16%
CCOc1ccccc1C(=O)N1CCCC(c2nccn2CCOC)C1 (centres undefined) | 10.7%
